{
  "source": "ChEMBL document CHEMBL5247609",
  "about": "“Novel nitric oxide-releasing derivatives of pyranocarbazole as antitumor agents: Design, synthesis, biological evaluation, and nitric oxide release studies” (Eur J Med Chem, 2022)",
  "key": {"MX1 [1]": {"tested_on": "MX1", "experiment": "Induction of morphological changes in human MX1 cells at 0.5 to 2 uM measured after 24 hrs by bright field inverted microscopic analysis", "type": "functional, cell-based", "details": "dose 0.5-2 µM"}, "MX1 [2]": {"tested_on": "MX1", "experiment": "Induction of morphological changes in human MX1 cells assessed as decrease in cell number at 0.5 to 2 uM measured after 24 hrs by bright field inverted microscopic analysis", "type": "functional, cell-based", "details": "dose 0.5-2 µM"}, "MDA-MB-231 [3]": {"tested_on": "MDA-MB-231", "experiment": "Induction of morphological changes in human MDA-MB-231 cells assessed as decrease in cell number at 0.5 to 2 uM measured after 24 hrs by bright field inverted microscopic analysis", "type": "functional, cell-based", "details": "dose 0.5-2 µM"}, "MX1 [4]": {"tested_on": "MX1", "experiment": "Induction of morphological changes in human MX1 cells assessed as decrease in cell size at 0.5 to 2 uM measured after 24 hrs by bright field inverted microscopic analysis", "type": "functional, cell-based", "details": "dose 0.5-2 µM"}, "MDA-MB-231 [5]": {"tested_on": "MDA-MB-231", "experiment": "Antiproliferative activity against human MDA-MB-231 cells assessed as decrease in number of colony formation at 0.25 uM measured after 14 days by crystal violet staining based analysis", "type": "functional, cell-based", "details": "time 14.0 day"}, "MX1 [6]": {"tested_on": "MX1", "experiment": "Induction of cell cycle arrest in human MX1 cells assessed as accumulation of cells at G0/G1 phase at 0.5 to 2 uM measured after 24 hrs by propidium iodide staining based FACS calibur flow cytometeric analysis (reference value: 39.2%)", "type": "functional", "details": "dose 0.5-2 µM"}, "MX1 [7]": {"tested_on": "MX1", "experiment": "Induction of cell cycle arrest in human MX-1 cells assessed as accumulation of cells at G0/G1 phase incubated for 24 hrs by propidium iodide staining based FACS calibur flow cytometeric analysis", "type": "functional", "details": "dose 0.5-2 µM"}, "MX1 [8]": {"tested_on": "MX1", "experiment": "Induction of cell cycle arrest in human MX1 cells assessed as decrease in cyclin B1 expression at 0.5 to 2 uM by Western blotting analysis", "type": "functional, cell-based", "details": "dose 0.5-2 µM, time 24.0 hrs"}, "MX1 [9]": {"tested_on": "MX1", "experiment": "Induction of apoptosis in human MX1 cells assessed as total apoptotic cells measured at 5 uM after 48 hrs by FITC-Annexin-V and propidium iodide based flow cytometric analysis (reference value: 16.36%)", "type": "functional"}, "MDA-MB-231 [10]": {"tested_on": "MDA-MB-231", "experiment": "Induction of apoptosis in human MDA-MB-231 cells assessed as total apoptotic cells measured at 5 uM after 48 hrs by FITC-Annexin-V and propidium iodide based flow cytometric analysis (reference value: 6.2%)", "type": "functional"}, "MX1 [11]": {"tested_on": "MX1", "experiment": "Induction of apoptosis in human MX1 cells assessed as viable cells measured at 0.5 uM after 48 hrs by FITC-Annexin-V and propidium iodide based flow cytometric analysis (reference value: 88.4%)", "type": "functional", "details": "read-out: Activity"}, "MX1 [12]": {"tested_on": "MX1", "experiment": "Induction of apoptosis in human MX1 cells assessed as upregulation of Bax by Western blotting analysis", "type": "functional, cell-based", "details": "dose 0.5-2 µM"}, "MX1 [13]": {"tested_on": "MX1", "experiment": "Induction of apoptosis in human MX1 cells assessed as late apoptotic cells measured at 0.5 uM after 48 hrs by FITC-Annexin-V and propidium iodide based flow cytometric analysis (reference value: 5.24%)", "type": "functional"}, "MX1 [14]": {"tested_on": "MX1", "experiment": "Induction of apoptosis in human MX1 cells assessed as necrotic cells measured at 0.5 uM after 48 hrs by FITC-Annexin-V and propidium iodide based flow cytometric analysis (reference value: 0.055 %)", "type": "functional"}, "MX1 [15]": {"tested_on": "MX1", "experiment": "Induction of apoptosis in human MX1 cells assessed as late apoptotic cells measured at 1 uM after 48 hrs by FITC-Annexin-V and propidium iodide based flow cytometric analysis (reference value: 5.24%)", "type": "functional"}, "MX1 [16]": {"tested_on": "MX1", "experiment": "Induction of apoptosis in human MX1 cells assessed as viable cells measured at 2 uM after 48 hrs by FITC-Annexin-V and propidium iodide based flow cytometric analysis (reference value: 88.4%)", "type": "functional", "details": "read-out: Activity"}, "MX1 [17]": {"tested_on": "MX1", "experiment": "Induction of apoptosis in human MX1 cells assessed as late apoptotic cells measured at 2 uM after 48 hrs by FITC-Annexin-V and propidium iodide based flow cytometric analysis (reference value: 5.24%)", "type": "functional"}, "MX1 [18]": {"tested_on": "MX1", "experiment": "Induction of apoptosis in human MX1 cells assessed as necrotic cells measured at 5 uM after 48 hrs by FITC-Annexin-V and propidium iodide based flow cytometric analysis (reference value: 0.055 %)", "type": "functional"}, "MDA-MB-231 [19]": {"tested_on": "MDA-MB-231", "experiment": "Induction of apoptosis in human MDA-MB-231 cells assessed as viable cells measured at 0.5 uM after 48 hrs by FITC-Annexin-V and propidium iodide based flow cytometric analysis (reference value: 94.4% )", "type": "functional", "details": "read-out: Activity"}, "MDA-MB-231 [20]": {"tested_on": "MDA-MB-231", "experiment": "Induction of apoptosis in human MDA-MB-231 cells assessed as late apoptotic cells measured at 0.5 uM after 48 hrs by FITC-Annexin-V and propidium iodide based flow cytometric analysis (reference value: 2.68%)", "type": "functional"}, "MDA-MB-231 [21]": {"tested_on": "MDA-MB-231", "experiment": "Induction of apoptosis in human MDA-MB-231 cells assessed as viable cells measured at 1 uM after 48 hrs by FITC-Annexin-V and propidium iodide based flow cytometric analysis (reference value: 94.4% )", "type": "functional", "details": "read-out: Activity"}, "MDA-MB-231 [22]": {"tested_on": "MDA-MB-231", "experiment": "Induction of apoptosis in human MDA-MB-231 cells assessed as late apoptotic cells measured at 1 uM after 48 hrs by FITC-Annexin-V and propidium iodide based flow cytometric analysis (reference value: 2.68%)", "type": "functional"}, "MDA-MB-231 [23]": {"tested_on": "MDA-MB-231", "experiment": "Induction of apoptosis in human MDA-MB-231 cells assessed as necrotic cells measured at 1 uM after 48 hrs by FITC-Annexin-V and propidium iodide based flow cytometric analysis (reference value: 0.253 %)", "type": "functional"}, "MDA-MB-231 [24]": {"tested_on": "MDA-MB-231", "experiment": "Induction of apoptosis in human MDA-MB-231 cells assessed as necrotic cells measured at 2 uM after 48 hrs by FITC-Annexin-V and propidium iodide based flow cytometric analysis (reference value: 0.253 %)", "type": "functional"}, "MDA-MB-231 [25]": {"tested_on": "MDA-MB-231", "experiment": "Induction of apoptosis in human MDA-MB-231 cells assessed as viable cells measured at 5 uM after 48 hrs by FITC-Annexin-V and propidium iodide based flow cytometric analysis (reference value: 94.4% )", "type": "functional", "details": "read-out: Activity"}, "MDA-MB-231 [26]": {"tested_on": "MDA-MB-231", "experiment": "Induction of apoptosis in human MDA-MB-231 cells assessed as early apoptotic cells measured at 5 uM after 48 hrs by FITC-Annexin-V and propidium iodide based flow cytometric analysis (reference value: 2.71%)", "type": "functional"}, "MX1 [27]": {"tested_on": "MX1", "experiment": "Inhibition of PI3K/Akt signaling in human MX1 cells assessed as decrease in phosphorylated S6 expression incubated for 24 hrs by Western blotting analysis", "type": "cell-based", "details": "dose 0.5-5 µM"}, "MDA-MB-231 [28]": {"tested_on": "MDA-MB-231", "experiment": "Inhibition of PI3K/Akt signaling in human MDA-MB-231 cells assessed as decrease in phosphorylated Akt expression level incubated for 24 hrs by Western blotting analysis", "type": "cell-based", "details": "dose 0.5-5 µM"}, "EMT6": {"tested_on": "EMT6", "experiment": "Antitumor activity against mouse EMT6 cells allografted in BALBC mouse assessed as reduction in tumor progression at 150 mg/kg, IG administered every 3 days for 21 days", "type": "functional, organism-based", "details": "time 21.0 day"}, "[29]": {"experiment": "Toxicity in BALBC mouse allografted with mouse EMT6 cells assessed as weight loss at 50 to 150 mg/kg, IG administered every 3 days for 21 days", "type": "organism-based", "details": "in vivo, po, 504 h, dose 50-150 mg/kg, time 21 day"}, "MDA-MB-231 [30]": {"tested_on": "MDA-MB-231", "experiment": "Antitumor activity against human MDA-MB-231 cells xenografted in ig dosed BALBc mouse assessed as inhibition of tumor growth administered every 3 days for 21 days", "type": "functional, organism-based", "details": "time 21.0 day"}, "MDA-MB-231 [31]": {"tested_on": "MDA-MB-231", "experiment": "Antitumor activity against human MDA-MB-231 cells xenografted in BALBC mouse assessed as inhibition of tumor growth at 75 mg/kg, IG administered every 3 days for 21 days relative to control", "type": "functional", "details": "MDA-MB-231, po, 504 h, time 21 day, read-out: TGI"}, "MX1 [32]": {"tested_on": "MX1", "experiment": "Inhibition of PI3K/Akt signaling in human MX1 cells assessed as decrease in total Akt expression level incubated for 24 hrs by Western blotting analysis", "type": "cell-based"}},
  "note": "Activity calls are given as the source filed them. No cut-off for these calls is given here.",
  "data": [
    {"smiles": "CC1(C)C=Cc2c(c(/C=C/C(=O)NCCOc3no[n+]([O-])c3S(=O)(=O)c3ccccc3)cc3c2[nH]c2ccc(C(C)(C)C)cc23)O1", "values": [
      {"measurement": "Activity", "setting": "MX1 [1]", "result": "Active"},
      {"measurement": "Activity", "setting": "MX1 [2]", "result": "Active"},
      {"measurement": "Activity", "setting": "MDA-MB-231 [3]", "result": "Active"},
      {"measurement": "Activity", "setting": "MX1 [4]", "result": "Active"},
      {"measurement": "Activity", "setting": "MDA-MB-231 [5]", "result": "Active"},
      {"measurement": "Activity", "setting": "MX1 [6]", "result": 43.1, "unit": "%"},
      {"measurement": "Activity", "setting": "MX1 [7]", "result": "Dose-Dependent Effect"},
      {"measurement": "Activity", "setting": "MX1 [8]", "result": "Active"},
      {"measurement": "Activity", "setting": "MX1 [9]", "result": 87.2, "unit": "%"},
      {"measurement": "Activity", "setting": "MDA-MB-231 [10]", "result": 71.2, "unit": "%"},
      {"measurement": "viability at 0.5 µM", "setting": "MX1 [11]", "result": 54.8, "unit": "%"},
      {"measurement": "Activity", "setting": "MX1 [12]", "result": "Dose-Dependent Effect"},
      {"measurement": "Activity", "setting": "MX1 [13]", "result": 5.2, "unit": "%"},
      {"measurement": "Activity", "setting": "MX1 [14]", "result": 0.202, "unit": "%"},
      {"measurement": "Activity", "setting": "MX1 [15]", "result": 8.1, "unit": "%"},
      {"measurement": "viability at 2 µM", "setting": "MX1 [16]", "result": 11.9, "unit": "%"},
      {"measurement": "Activity", "setting": "MX1 [17]", "result": 2.83, "unit": "%"},
      {"measurement": "Activity", "setting": "MX1 [18]", "result": 0.276, "unit": "%"},
      {"measurement": "viability at 0.5 µM", "setting": "MDA-MB-231 [19]", "result": 92.4, "unit": "%"},
      {"measurement": "Activity", "setting": "MDA-MB-231 [20]", "result": 3.85, "unit": "%"},
      {"measurement": "viability at 1 µM", "setting": "MDA-MB-231 [21]", "result": 91.2, "unit": "%"},
      {"measurement": "Activity", "setting": "MDA-MB-231 [22]", "result": 4.85, "unit": "%"},
      {"measurement": "Activity", "setting": "MDA-MB-231 [23]", "result": 0.209, "unit": "%"},
      {"measurement": "Activity", "setting": "MDA-MB-231 [24]", "result": 0.535, "unit": "%"},
      {"measurement": "viability at 5 µM", "setting": "MDA-MB-231 [25]", "result": 47.1, "unit": "%"},
      {"measurement": "Activity", "setting": "MDA-MB-231 [26]", "result": 31.2, "unit": "%"},
      {"measurement": "inhibition", "setting": "MX1 [27]", "result": "Dose-Dependent Effect"},
      {"measurement": "inhibition", "setting": "MDA-MB-231 [28]", "result": "Dose-Dependent Effect"},
      {"measurement": "Activity", "setting": "EMT6", "result": "Active"},
      {"measurement": "Activity", "setting": "[29]", "result": "Non-Toxic"},
      {"measurement": "Activity", "setting": "MDA-MB-231 [30]", "result": "Dose-Dependent Effect"},
      {"measurement": "inhibition in vivo at 75 mg/kg", "setting": "MDA-MB-231 [31]", "result": 30, "unit": "%"},
      {"measurement": "inhibition", "setting": "MX1 [32]", "result": "inactive"}
    ]}
  ]
}
